Consider one compound from ChEMBL document CHEMBL5058646 (2022).

pKi: −log10 of the molar value.

Assay [1] addresses 5-hydroxytryptamine receptor 1D (Homo sapiens, UniProt P28221). The assay can be described thus: GPCRScan assay: inhibition of 5-HT1D. Also noted: radioligand conc. used [nm] 1.0 – 2.0, parental cells HEKT.
Assay [2] addresses Peripheral plasma membrane protein CASK (Homo sapiens) (UniProt O14936). The assay can be described thus: CASK SGC Tm panel (DSF). The note with it: Compound concentration 20.0 uM.
Assay [3] has as its target Cyclin-dependent kinase 2 (Homo sapiens) (UniProt P24941). Kind of assay: CDK2 SGC Tm panel (DSF). The note with it: Compound concentration 20.0 uM.
The target in assay [4] is MAP kinase-activated protein kinase 2 (Homo sapiens) (UniProt P49137). The assay can be described thus: MAPKAPK2 SGC Tm panel (DSF). The following applies: Compound concentration 20.0 uM.
For assay [5], the target named is Serine/threonine-protein kinase 17B (Homo sapiens) (UniProt O94768). Kind of assay: STK17B SGC Tm panel (DSF). The following applies: Compound concentration 20.0 uM.
Assay [6] deals with Muscarinic acetylcholine receptor M5 (Homo sapiens) (UniProt P08912). The note with it: Compound concentration 10.0 uM.
Assay [7] deals with Zinc finger and BTB domain-containing protein 43 (Homo sapiens) (UniProt O43298). The note with it: SUD4, Compound concentration 1.0 uM.
Assay [8] deals with T1, Zinc finger and BTB domain-containing protein 44 (Homo sapiens) (UniProt Q8NCP5).
T1 sequence (whole entry): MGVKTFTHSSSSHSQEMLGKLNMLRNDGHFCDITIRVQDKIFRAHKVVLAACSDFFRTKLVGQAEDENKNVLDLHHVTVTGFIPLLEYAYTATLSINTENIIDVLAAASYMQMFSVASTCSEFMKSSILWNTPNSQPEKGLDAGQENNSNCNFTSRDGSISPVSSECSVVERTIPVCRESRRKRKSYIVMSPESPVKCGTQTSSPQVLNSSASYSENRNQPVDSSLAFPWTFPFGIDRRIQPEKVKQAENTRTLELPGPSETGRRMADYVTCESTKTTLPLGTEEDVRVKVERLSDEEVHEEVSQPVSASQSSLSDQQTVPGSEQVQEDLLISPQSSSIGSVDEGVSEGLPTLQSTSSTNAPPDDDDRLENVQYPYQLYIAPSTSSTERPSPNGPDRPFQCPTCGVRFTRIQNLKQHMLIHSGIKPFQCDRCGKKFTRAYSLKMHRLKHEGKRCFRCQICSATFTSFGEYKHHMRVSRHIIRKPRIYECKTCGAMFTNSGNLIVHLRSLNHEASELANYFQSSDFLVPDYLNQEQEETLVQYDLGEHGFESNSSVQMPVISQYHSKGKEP
The note with it: OCI-Ly1, Compound concentration 1.0 uM.

Sequence of MAP kinase-activated protein kinase 2 (Homo sapiens) (P49137 whole entry, looked up): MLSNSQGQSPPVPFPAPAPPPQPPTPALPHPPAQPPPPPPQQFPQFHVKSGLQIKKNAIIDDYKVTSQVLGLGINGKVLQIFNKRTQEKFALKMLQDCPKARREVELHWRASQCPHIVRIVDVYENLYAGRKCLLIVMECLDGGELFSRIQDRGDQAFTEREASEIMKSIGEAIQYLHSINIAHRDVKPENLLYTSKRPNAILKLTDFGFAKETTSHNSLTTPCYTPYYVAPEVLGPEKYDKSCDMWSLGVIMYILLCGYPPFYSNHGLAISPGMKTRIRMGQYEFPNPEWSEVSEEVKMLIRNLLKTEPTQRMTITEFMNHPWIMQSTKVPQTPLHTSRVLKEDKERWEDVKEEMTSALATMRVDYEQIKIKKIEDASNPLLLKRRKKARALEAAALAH
Sequence of Zinc finger and BTB domain-containing protein 43 (Homo sapiens) (O43298 whole entry, the tested form may be a part): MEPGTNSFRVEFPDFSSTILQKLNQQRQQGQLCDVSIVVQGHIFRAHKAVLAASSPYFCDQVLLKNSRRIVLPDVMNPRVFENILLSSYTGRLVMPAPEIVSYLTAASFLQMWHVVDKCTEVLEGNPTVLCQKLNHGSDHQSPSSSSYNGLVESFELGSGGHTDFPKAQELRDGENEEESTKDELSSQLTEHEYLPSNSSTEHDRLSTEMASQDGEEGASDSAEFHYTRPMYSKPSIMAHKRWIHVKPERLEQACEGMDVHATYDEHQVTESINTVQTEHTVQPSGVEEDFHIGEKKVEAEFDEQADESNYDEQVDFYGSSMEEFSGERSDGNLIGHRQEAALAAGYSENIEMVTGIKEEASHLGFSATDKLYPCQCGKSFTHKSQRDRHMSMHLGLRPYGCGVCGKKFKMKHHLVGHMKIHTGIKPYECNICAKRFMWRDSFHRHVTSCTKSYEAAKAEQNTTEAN
Sequence of Muscarinic acetylcholine receptor M5 (Homo sapiens) (P08912 whole entry, the tested form may be a part): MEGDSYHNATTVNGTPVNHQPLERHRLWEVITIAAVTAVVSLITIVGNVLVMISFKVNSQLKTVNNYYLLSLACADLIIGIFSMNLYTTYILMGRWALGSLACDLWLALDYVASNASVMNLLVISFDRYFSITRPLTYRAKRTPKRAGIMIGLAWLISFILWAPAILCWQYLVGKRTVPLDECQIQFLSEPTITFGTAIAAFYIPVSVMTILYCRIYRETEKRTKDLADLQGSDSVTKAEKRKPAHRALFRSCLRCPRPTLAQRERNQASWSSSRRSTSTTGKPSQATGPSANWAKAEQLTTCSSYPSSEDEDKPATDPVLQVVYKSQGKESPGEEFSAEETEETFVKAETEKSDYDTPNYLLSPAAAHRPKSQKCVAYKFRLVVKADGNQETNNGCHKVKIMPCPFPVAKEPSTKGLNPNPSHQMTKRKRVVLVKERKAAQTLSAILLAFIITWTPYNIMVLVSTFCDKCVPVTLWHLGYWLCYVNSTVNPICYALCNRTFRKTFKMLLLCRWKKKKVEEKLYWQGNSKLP
Sequence of 5-hydroxytryptamine receptor 1D (P28221 whole entry): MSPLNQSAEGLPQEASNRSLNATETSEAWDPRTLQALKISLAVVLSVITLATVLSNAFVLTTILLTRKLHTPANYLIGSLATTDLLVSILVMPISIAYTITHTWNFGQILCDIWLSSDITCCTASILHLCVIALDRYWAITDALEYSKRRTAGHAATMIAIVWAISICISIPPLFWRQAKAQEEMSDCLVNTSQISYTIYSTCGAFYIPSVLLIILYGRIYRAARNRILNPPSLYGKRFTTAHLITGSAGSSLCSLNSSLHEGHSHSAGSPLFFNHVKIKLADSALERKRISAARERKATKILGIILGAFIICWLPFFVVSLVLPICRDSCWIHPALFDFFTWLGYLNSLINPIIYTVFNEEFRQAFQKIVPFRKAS
Sequence of Peripheral plasma membrane protein CASK (Homo sapiens) (O14936 whole entry): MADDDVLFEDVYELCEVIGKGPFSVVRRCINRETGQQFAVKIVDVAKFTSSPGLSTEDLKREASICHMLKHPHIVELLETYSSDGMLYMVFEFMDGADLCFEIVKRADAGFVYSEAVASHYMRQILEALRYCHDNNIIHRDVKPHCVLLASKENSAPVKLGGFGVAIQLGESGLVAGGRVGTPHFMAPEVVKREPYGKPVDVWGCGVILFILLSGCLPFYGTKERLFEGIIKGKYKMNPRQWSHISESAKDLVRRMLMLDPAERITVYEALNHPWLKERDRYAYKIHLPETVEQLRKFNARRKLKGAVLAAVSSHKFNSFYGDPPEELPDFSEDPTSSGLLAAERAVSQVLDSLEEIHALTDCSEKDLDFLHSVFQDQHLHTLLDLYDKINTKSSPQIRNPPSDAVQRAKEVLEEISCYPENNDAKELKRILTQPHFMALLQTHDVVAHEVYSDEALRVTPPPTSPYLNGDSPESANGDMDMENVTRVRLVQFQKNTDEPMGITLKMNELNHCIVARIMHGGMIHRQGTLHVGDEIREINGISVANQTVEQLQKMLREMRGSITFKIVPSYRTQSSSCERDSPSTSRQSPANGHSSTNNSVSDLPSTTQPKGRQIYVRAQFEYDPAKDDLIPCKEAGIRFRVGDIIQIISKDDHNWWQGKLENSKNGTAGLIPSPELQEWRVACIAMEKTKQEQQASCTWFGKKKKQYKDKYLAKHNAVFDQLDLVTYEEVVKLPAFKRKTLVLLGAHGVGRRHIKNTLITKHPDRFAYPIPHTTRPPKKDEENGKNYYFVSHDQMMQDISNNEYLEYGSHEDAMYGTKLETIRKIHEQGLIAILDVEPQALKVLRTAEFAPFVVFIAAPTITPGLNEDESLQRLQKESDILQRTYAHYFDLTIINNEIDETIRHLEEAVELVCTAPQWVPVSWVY
Sequence of Serine/threonine-protein kinase 17B (Homo sapiens) (O94768 whole entry): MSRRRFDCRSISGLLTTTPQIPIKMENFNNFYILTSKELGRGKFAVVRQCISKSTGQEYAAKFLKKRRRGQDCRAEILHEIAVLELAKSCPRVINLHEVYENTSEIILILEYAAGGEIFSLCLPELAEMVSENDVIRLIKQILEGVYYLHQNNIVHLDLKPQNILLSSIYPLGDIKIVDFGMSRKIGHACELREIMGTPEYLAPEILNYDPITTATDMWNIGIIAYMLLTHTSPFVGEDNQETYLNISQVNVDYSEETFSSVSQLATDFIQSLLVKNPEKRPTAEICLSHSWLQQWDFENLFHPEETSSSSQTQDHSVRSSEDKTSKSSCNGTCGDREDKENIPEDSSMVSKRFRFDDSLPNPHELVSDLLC

In general, pKi refers to the Ki on a negative log10 scale, so that one unit is a factor of ten. In general, Tm refers to the temperature at which the thermal transition is half complete. For orientation: inhibition means how much of the control response was suppressed. As to `C[C@@H]1CN(c2ncc(Cl)c(Nc3ccc4c(c3)n(CCC(C)(C)O)c(=O)n4C)n2)C[C@H](C)C1(F)F`, the pKi in assay [1] is 5.21. In addition, the Tm was 68 °C in assay [2], 46 °C in assay [3], 46 °C in assay [4] and 43 °C in assay [5]. Moreover, the inhibition in assay [6] is 20.6%. Besides, the figures for the LogFC in assay [7] and in assay [8] were 0.0194 and 0.423, respectively.
